Experimental data from ChEMBL document CHEMBL5346973 (J Med Chem, 2023).
Where a SMILES comes first, the peptide text is derived from it.

Tests used:
[1] = molecular target: Neuronal acetylcholine receptor subunit alpha-7 (Rattus norvegicus, UniProt Q05941); assay: Antagonist activity at rat alpha7 nACh receptor expressed in Xenopus oocyte assessed as inhibition of acetylcholine-induced response at -70 mV holding potential by voltage-clamp based electrophysiological assay; format: cell-based
[2] = molecular target: Nicotinic acetylcholine receptor alpha9/alpha10 (Rattus norvegicus, UniProt P43144+Q9JLB5); assay: Antagonist activity at rat alpha9alpha10 nACh receptor expressed in Xenopus oocyte assessed as inhibition of acetylcholine-induced response at -70 mV holding potential by voltage-clamp based electrophysiological assay; format: cell-based
Sequence of Nicotinic acetylcholine receptor alpha9/alpha10 (P43144 whole entry): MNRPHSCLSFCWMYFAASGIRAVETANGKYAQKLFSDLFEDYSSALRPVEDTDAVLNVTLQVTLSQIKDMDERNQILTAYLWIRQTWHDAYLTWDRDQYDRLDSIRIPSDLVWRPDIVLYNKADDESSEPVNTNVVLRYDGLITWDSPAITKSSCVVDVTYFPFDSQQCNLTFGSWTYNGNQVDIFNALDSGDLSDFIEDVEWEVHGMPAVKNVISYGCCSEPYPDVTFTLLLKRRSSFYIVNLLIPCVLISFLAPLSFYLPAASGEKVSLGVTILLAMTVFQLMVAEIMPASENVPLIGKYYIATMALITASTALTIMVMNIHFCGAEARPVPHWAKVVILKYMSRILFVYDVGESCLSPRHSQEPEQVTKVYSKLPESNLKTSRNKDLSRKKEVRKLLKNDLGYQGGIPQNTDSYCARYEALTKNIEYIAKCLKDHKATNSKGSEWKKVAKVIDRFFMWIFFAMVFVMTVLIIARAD
Sequence of Nicotinic acetylcholine receptor alpha9/alpha10 (Q9JLB5 whole entry): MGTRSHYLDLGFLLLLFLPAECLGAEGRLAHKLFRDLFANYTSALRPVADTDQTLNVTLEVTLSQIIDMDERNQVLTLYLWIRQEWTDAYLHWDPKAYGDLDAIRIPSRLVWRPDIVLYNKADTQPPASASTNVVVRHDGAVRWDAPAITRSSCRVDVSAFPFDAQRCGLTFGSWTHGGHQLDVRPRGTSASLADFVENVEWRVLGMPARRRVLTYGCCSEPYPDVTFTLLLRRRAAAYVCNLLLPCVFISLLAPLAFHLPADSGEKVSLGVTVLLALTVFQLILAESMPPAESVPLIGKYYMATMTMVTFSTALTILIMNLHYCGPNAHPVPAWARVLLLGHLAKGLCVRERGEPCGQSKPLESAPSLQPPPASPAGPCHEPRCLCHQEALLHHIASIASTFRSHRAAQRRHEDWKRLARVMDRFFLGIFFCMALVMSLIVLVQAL

Sequence of Neuronal acetylcholine receptor subunit alpha-7 (Q05941 whole entry): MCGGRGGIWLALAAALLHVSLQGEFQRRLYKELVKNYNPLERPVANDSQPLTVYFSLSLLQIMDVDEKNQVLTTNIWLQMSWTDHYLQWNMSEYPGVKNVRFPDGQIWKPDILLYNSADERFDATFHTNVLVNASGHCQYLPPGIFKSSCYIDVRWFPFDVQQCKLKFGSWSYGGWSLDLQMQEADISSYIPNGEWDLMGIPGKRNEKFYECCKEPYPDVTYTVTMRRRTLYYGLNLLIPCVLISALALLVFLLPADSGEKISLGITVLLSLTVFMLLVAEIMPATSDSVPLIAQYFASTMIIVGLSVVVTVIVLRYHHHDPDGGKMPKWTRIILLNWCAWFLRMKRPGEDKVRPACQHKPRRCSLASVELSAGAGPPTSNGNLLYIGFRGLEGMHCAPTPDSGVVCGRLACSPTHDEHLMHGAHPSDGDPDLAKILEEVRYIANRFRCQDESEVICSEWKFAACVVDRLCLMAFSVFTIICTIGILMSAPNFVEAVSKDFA

Compound	IC50 [1]	IC50 [2]
CC[C@H](C)[C@@H]1NC(=O)[C@H](CCCNC(=N)N)NC(=O)[C@H](CCCNC(=N)N)NC(=O)[C@@H](NC(=O)[C@H](Cc2ccc(O)cc2)NC(=O)[C@H](CCCNC(=N)N)NC(=O)[C@H](CCCNC(=N)N)NC(=O)[C@H](CCCNC(=N)N)NC(=O)[C@H](CCCNC(=N)N)NC(=O)[C@H](CC(=O)O)NC(=O)[C@H](Cc2ccc(O)cc2)NC(=O)[C@@H]2CCCN2C(=O)[C@H](CO)NC(=O)[C@H](CCCNC(=N)N)NC(=O)[C@@H]2CSSC[C@H](NC(=O)[C@@H](N)[C@@H](C)O)C(=O)N[C@@H](CCCNC(=N)N)C(=O)N[C@@H](CO)C(=O)N[C@@H](CO)C(=O)N[C@@H](C)C(=O)N[C@@H](CCCNC(=N)N)C(=O)N[C@@H](Cc3ccc(O)cc3)C(=O)N2)CSSC[C@H](C(=O)N[C@H](C(=O)O)C(C)C)NC(=O)[C@H](C)NC(=O)[C@H](CC(=O)O)NC(=O)[C@H]([C@@H](C)O)NC1=O	1460 nM	4.5 nM
CC[C@H](C)[C@@H]1NC(=O)[C@H](CCCNC(=N)N)NC(=O)[C@H](CCCNC(=N)N)NC(=O)[C@@H]2CSSC[C@H](NC(=O)[C@H](Cc3ccc(O)cc3)NC(=O)[C@H](CCCNC(=N)N)NC(=O)CNC(=O)[C@H](CO)NC(=O)[C@H](CO)NC(=O)[C@H](CCCNC(=N)N)NC(=O)[C@@H](NC(=O)[C@@H](N)[C@@H](C)O)CSSC[C@@H](C(=O)N[C@H](C(=O)O)C(C)C)NC(=O)[C@H](C)NC(=O)[C@H](CC(=O)O)NC(=O)[C@H]([C@@H](C)O)NC1=O)C(=O)N[C@@H](CCCNC(=N)N)C(=O)N[C@@H](CO)C(=O)N1CCC[C@H]1C(=O)N[C@@H](Cc1ccc(O)cc1)C(=O)N[C@@H](CC(=O)O)C(=O)N[C@@H](CCCNC(=N)N)C(=O)N[C@@H](CCCNC(=N)N)C(=O)N[C@@H](CCCNC(=N)N)C(=O)N[C@@H](C)C(=O)N[C@@H](Cc1ccc(O)cc1)C(=O)N2	> 10000 nM	27 nM
CC[C@H](C)[C@@H]1NC(=O)[C@H](CCCNC(=N)N)NC(=O)[C@H](CCCNC(=N)N)NC(=O)[C@@H]2CSSC[C@H](NC(=O)[C@H](Cc3ccc(O)cc3)NC(=O)[C@H](CCCNC(=N)N)NC(=O)CNC(=O)[C@H](CO)NC(=O)[C@H](CO)NC(=O)[C@H](CCCNC(=N)N)NC(=O)[C@@H](NC(=O)[C@H](C)N)CSSC[C@@H](C(=O)N[C@H](C(=O)O)C(C)C)NC(=O)[C@H](C)NC(=O)[C@H](CC(=O)O)NC(=O)[C@H]([C@@H](C)O)NC1=O)C(=O)N[C@@H](CCCNC(=N)N)C(=O)N[C@@H](CO)C(=O)N1CCC[C@H]1C(=O)N[C@@H](Cc1ccc(O)cc1)C(=O)N[C@@H](CC(=O)O)C(=O)N[C@@H](CCCNC(=N)N)C(=O)N[C@@H](CCCNC(=N)N)C(=O)N[C@@H](CCCNC(=N)N)C(=O)N[C@@H](CCCNC(=N)N)C(=O)N[C@@H](Cc1ccc(O)cc1)C(=O)N2	2450 nM	14 nM
CC[C@H](C)[C@@H]1NC(=O)[C@H](CCCNC(=N)N)NC(=O)[C@H](CCCNC(=N)N)NC(=O)[C@@H](NC(=O)[C@H](C)NC(=O)[C@H](CCCNC(=N)N)NC(=O)[C@H](CCCNC(=N)N)NC(=O)[C@H](CCCNC(=N)N)NC(=O)[C@H](CCCNC(=N)N)NC(=O)[C@H](CC(=O)O)NC(=O)[C@H](Cc2ccc(O)cc2)NC(=O)[C@@H]2CCCN2C(=O)[C@H](CO)NC(=O)[C@H](CCCNC(=N)N)NC(=O)[C@@H]2CSSC[C@H](NC(=O)[C@@H](N)[C@@H](C)O)C(=O)N[C@@H](CCCNC(=N)N)C(=O)N[C@@H](CO)C(=O)N[C@@H](CO)C(=O)NCC(=O)N[C@@H](CCCNC(=N)N)C(=O)N[C@@H](Cc3ccc(O)cc3)C(=O)N2)CSSC[C@@H](C(=O)N[C@H](C(=O)O)C(C)C)NC(=O)[C@H](C)NC(=O)[C@H](CC(=O)O)NC(=O)[C@H]([C@@H](C)O)NC1=O	4620 nM	16 nM
CC[C@H](C)[C@@H]1NC(=O)[C@H](CCCNC(=N)N)NC(=O)[C@H](CCCNC(=N)N)NC(=O)[C@@H]2CSSC[C@H](NC(=O)[C@H](Cc3ccc(O)cc3)NC(=O)[C@H](CCCNC(=N)N)NC(=O)[C@H](C)NC(=O)[C@H](CO)NC(=O)[C@H](CO)NC(=O)[C@H](CCCNC(=N)N)NC(=O)[C@@H](NC(=O)[C@@H](N)[C@@H](C)O)CSSC[C@@H](C(=O)N[C@H](C(=O)O)C(C)C)NC(=O)[C@H](C)NC(=O)[C@H](CC(=O)O)NC(=O)[C@H]([C@@H](C)O)NC1=O)C(=O)N[C@@H](CCCNC(=N)N)C(=O)N[C@@H](CO)C(=O)N1CCC[C@H]1C(=O)N[C@@H](Cc1ccc(O)cc1)C(=O)N[C@@H](CC(=O)O)C(=O)N[C@@H](CCCNC(=N)N)C(=O)N[C@@H](CCCNC(=N)N)C(=O)N[C@@H](CCCNC(=N)N)C(=O)N[C@@H](CCCNC(=N)N)C(=O)N[C@@H](Cc1ccc(O)cc1)C(=O)N2 (HELM PEPTIDE1{T.C.R.S.S.A.R.Y.C.R.S.P.Y.D.R.R.R.R.Y.C.R.R.I.T.D.A.C.V}$PEPTIDE1,PEPTIDE1,2:R3-27:R3|PEPTIDE1,PEPTIDE1,9:R3-20:R3$$$V2.0)	5720 nM	17 nM
CC[C@H](C)[C@@H]1NC(=O)[C@H](CCCNC(=N)N)NC(=O)[C@H](CCCNC(=N)N)NC(=O)[C@@H](NC(=O)[C@H](Cc2ccc(O)cc2)NC(=O)[C@H](CCCNC(=N)N)NC(=O)[C@H](CCCNC(=N)N)NC(=O)[C@H](CCCNC(=N)N)NC(=O)[C@H](C)NC(=O)[C@H](CC(=O)O)NC(=O)[C@H](Cc2ccc(O)cc2)NC(=O)[C@@H]2CCCN2C(=O)[C@H](CO)NC(=O)[C@H](CCCNC(=N)N)NC(=O)[C@@H]2CSSC[C@H](NC(=O)[C@H](N)[C@H](C)O)C(=O)N[C@@H](CCCNC(=N)N)C(=O)N[C@@H](CO)C(=O)N[C@@H](CO)C(=O)NCC(=O)N[C@@H](CCCNC(=N)N)C(=O)N[C@@H](Cc3ccc(O)cc3)C(=O)N2)CSSC[C@@H](C(=O)N[C@H](C(=O)O)C(C)C)NC(=O)[C@H](C)NC(=O)[C@H](CC(=O)O)NC(=O)[C@H]([C@@H](C)O)NC1=O	3280 nM	32 nM
CC[C@H](C)[C@@H]1NC(=O)[C@H](CCCNC(=N)N)NC(=O)[C@H](CCCNC(=N)N)NC(=O)[C@@H]2CSSC[C@H](NC(=O)[C@H](Cc3ccc(O)cc3)NC(=O)[C@H](CCCNC(=N)N)NC(=O)CNC(=O)[C@H](CO)NC(=O)[C@H](CO)NC(=O)[C@H](CCCNC(=N)N)NC(=O)[C@@H](NC(=O)[C@@H](N)[C@@H](C)O)CSSC[C@@H](C(=O)N[C@@H](C)C(=O)O)NC(=O)[C@H](C)NC(=O)[C@H](CC(=O)O)NC(=O)[C@H]([C@@H](C)O)NC1=O)C(=O)N[C@@H](CCCNC(=N)N)C(=O)N[C@@H](CO)C(=O)N1CCC[C@H]1C(=O)N[C@@H](Cc1ccc(O)cc1)C(=O)N[C@@H](CC(=O)O)C(=O)N[C@@H](CCCNC(=N)N)C(=O)N[C@@H](CCCNC(=N)N)C(=O)N[C@@H](CCCNC(=N)N)C(=O)N[C@@H](CCCNC(=N)N)C(=O)N[C@@H](Cc1ccc(O)cc1)C(=O)N2	1600 nM	62 nM
CC[C@H](C)[C@@H]1NC(=O)[C@H](CCCNC(=N)N)NC(=O)[C@H](CCCNC(=N)N)NC(=O)[C@@H](NC(=O)[C@H](Cc2ccc(O)cc2)NC(=O)[C@H](CCCNC(=N)N)NC(=O)[C@H](CCCNC(=N)N)NC(=O)[C@H](CCCNC(=N)N)NC(=O)[C@H](CCCNC(=N)N)NC(=O)[C@H](CC(=O)O)NC(=O)[C@H](Cc2ccc(O)cc2)NC(=O)[C@@H]2CCCN2C(=O)[C@H](CO)NC(=O)[C@H](CCCNC(=N)N)NC(=O)[C@@H]2CSSC[C@H](NC(=O)[C@@H](N)[C@@H](C)O)C(=O)N[C@@H](CCCNC(=N)N)C(=O)N[C@@H](CO)C(=O)N[C@@H](C)C(=O)NCC(=O)N[C@@H](CCCNC(=N)N)C(=O)N[C@@H](Cc3ccc(O)cc3)C(=O)N2)CSSC[C@@H](C(=O)N[C@H](C(=O)O)C(C)C)NC(=O)[C@H](C)NC(=O)[C@H](CC(=O)O)NC(=O)[C@H]([C@@H](C)O)NC1=O (HELM PEPTIDE1{T.C.R.S.A.G.R.Y.C.R.S.P.Y.D.R.R.R.R.Y.C.R.R.I.T.D.A.C.V}$PEPTIDE1,PEPTIDE1,2:R3-9:R3|PEPTIDE1,PEPTIDE1,20:R3-27:R3$$$V2.0)	1450 nM	27 nM
CC[C@H](C)[C@@H]1NC(=O)[C@H](CCCNC(=N)N)NC(=O)[C@H](CCCNC(=N)N)NC(=O)[C@@H]2CSSC[C@H](NC(=O)[C@H](Cc3ccc(O)cc3)NC(=O)[C@H](CCCNC(=N)N)NC(=O)CNC(=O)[C@H](C)NC(=O)[C@H](CO)NC(=O)[C@H](CCCNC(=N)N)NC(=O)[C@@H](NC(=O)[C@@H](N)[C@@H](C)O)CSSC[C@@H](C(=O)N[C@H](C(=O)O)C(C)C)NC(=O)[C@H](C)NC(=O)[C@H](CC(=O)O)NC(=O)[C@H]([C@@H](C)O)NC1=O)C(=O)N[C@@H](CCCNC(=N)N)C(=O)N[C@@H](CO)C(=O)N1CCC[C@H]1C(=O)N[C@@H](Cc1ccc(O)cc1)C(=O)N[C@@H](CC(=O)O)C(=O)N[C@@H](CCCNC(=N)N)C(=O)N[C@@H](CCCNC(=N)N)C(=O)N[C@@H](CCCNC(=N)N)C(=O)N[C@@H](CCCNC(=N)N)C(=O)N[C@@H](Cc1ccc(O)cc1)C(=O)N2 (HELM PEPTIDE1{T.C.R.S.A.G.R.Y.C.R.S.P.Y.D.R.R.R.R.Y.C.R.R.I.T.D.A.C.V}$PEPTIDE1,PEPTIDE1,2:R3-27:R3|PEPTIDE1,PEPTIDE1,9:R3-20:R3$$$V2.0)	6330 nM	60 nM
CC[C@H](C)[C@@H]1NC(=O)[C@H](CCCNC(=N)N)NC(=O)[C@H](CCCNC(=N)N)NC(=O)[C@@H](NC(=O)[C@H](Cc2ccc(O)cc2)NC(=O)[C@H](CCCNC(=N)N)NC(=O)[C@H](CCCNC(=N)N)NC(=O)[C@H](CCCNC(=N)N)NC(=O)[C@H](CCCNC(=N)N)NC(=O)[C@H](CC(=O)O)NC(=O)[C@H](Cc2ccc(O)cc2)NC(=O)[C@@H]2CCCN2C(=O)[C@H](CO)NC(=O)[C@H](CCCNC(=N)N)NC(=O)[C@@H]2CSSC[C@H](NC(=O)[C@@H](N)[C@@H](C)O)C(=O)N[C@@H](CCCNC(=N)N)C(=O)N[C@@H](CO)C(=O)N[C@@H](CO)C(=O)NCC(=O)N[C@@H](CCCNC(=N)N)C(=O)N[C@@H](C)C(=O)N2)CSSC[C@@H](C(=O)N[C@H](C(=O)O)C(C)C)NC(=O)[C@H](C)NC(=O)[C@H](CC(=O)O)NC(=O)[C@H]([C@@H](C)O)NC1=O (HELM PEPTIDE1{T.C.R.S.S.G.R.A.C.R.S.P.Y.D.R.R.R.R.Y.C.R.R.I.T.D.A.C.V}$PEPTIDE1,PEPTIDE1,2:R3-9:R3|PEPTIDE1,PEPTIDE1,20:R3-27:R3$$$V2.0)	1700 nM	10 nM
